System: Giardia lamblia trophozoites (strain ATCC 30957) gene expression
Test: Gene expression in trophozoites by RT-qPCR
Format: cell-based
Settings: IC50 of each compound, 48 h
Procedure: To determine the alterations in the parasite’s metabolism and cellular processes induced by the compounds, the expression levels of various genes encoding metabolic, structural, and oxidative stress response proteins were evaluated. G. lamblia strain ATCC 30957 was grown by following previously established culture parameters.
The culture tube was incubated on ice for 15 min and then centrifuged at 2000 rpm for 6 min to concentrate the cell pellet. Cell counting was performed using the trypan blue method. A 500 µL volume of Trizol ® was added, and it was gently homogenized; then, 60 µL of chloroform was added, and it was homogenized for 10 s with a vortex and incubated on ice for 3 min. Afterward, it was centrifuged at 12,000 rpm for 10 min, the aqueous phase was transferred to a new tube, 200 µL of isopropanol was added, and it was incubated for 3 h on ice. The sample was then centrifuged for 10 min at 12,000 rpm, and the supernatant was discarded. A 600 µL volume of ethanol (70%) was added, homogenized, and centrifuged. In the end, the supernatant was removed, and the sample was centrifuged again to dry the excess alcohol. The pellet was dried. Finally, it was resuspended in 25 µL of sterile MilliQ water. The concentration and purity of the extracted RNA were determined using the NanoDrop® Spectrophotometer ND-1000 (NanoDrop Technologies, Wilmington, DE, USA). […] RNA purity and integrity were confirmed using 0.8% (w/v) agarose gels under denaturing conditions.
The synthesis of cDNA was carried out with […] of purified RNA, and 1 U of […] was added (Thermo Thermo Fisher Scientific, Waltham, MA, USA). First-strand cDNA synthesis was carried out using 1 μg of DNase-treated RNA, combined with a 10 mM dNTP mix, oligo(dT)18 primer, and RevertAid reverse transcriptase (Thermo Scientific) in a final reaction volume of 20 μL. The reaction mixture was incubated at 42 °C for 60 min, followed by heat inactivation at 70 °C for 10 min. The synthesized cDNA was stored at −20 °C until further use. The level of purity and concentration of the cDNA were determined using the NanoDrop® Spectrophotometer ND-1000 (NanoDrop Technologies, Wilmington, DE, USA).
Specific oligonucleotides were designed to determine the expression levels of the gene’s phosphofructokinase, pyruvate kinase, glucose-6-phosphate dehydrogenase::6-phosphogluconolactonase, 6-phosphogluconate dehydrogenase, and transketolase. The design was based on gene sequences available in the National Center for Biotechnology Information (NCBI) database, adhering to the following criteria: an oligonucleotide length of 18–20 bp, a melting temperature (Tm) of 61 °C, a GC content of approximately 40%, and an amplicon size between 80 and 200 bp (Table 4). The oligonucleotides were synthesized by the Sequencing and Synthesis Unit of the Institute of Biotechnology, UNAM.
Additionally, previously reported primers that were used for the gene expression analysis of G. lamblia were also obtained (Table 4). These primers target genes encoding surface structural protein, giardin, actin, pyruvate:ferredoxin oxidoreductase, pyruvate phosphate dikinase, NADH oxidase, triose phosphate isomerase, glyceraldehyde-3-phosphate dehydrogenase, and Aldolase.
Amplification was performed using a StepOne™ Real-Time PCR System and the Fast SYBR® Green Master Mix kit (Applied Biosystems, Foster City, CA, USA) under the following conditions: an initial denaturation at 95 °C for 30 s, followed by 40 cycles of 95 °C for 3 s and 60 °C for 30 s. The melt curve analysis was conducted post-amplification by gradually increasing the temperature from 60 °C to 95 °C. […] Normalization was performed using the geometric mean of cycle threshold (Ct) values, and the relative expression levels of the target genes were calculated using the 2^−ΔΔCt method. Each reaction was performed in five replicates for all analyzed genes and strains. Results are presented as mean values ± standard deviation (SD).

SMILES: CCCCC(=O)Nc1ncc([N+](=O)[O-])s1 [FLP-2, N-(5-Nitro-1,3-thiazol-2-yl)pentanamide]
- 6PGDH gene expression vs control: differential overexpression
- ACT (actin) gene expression, decrease vs control: 10 times
- G6PD::6PGL gene expression vs control: 117.4 fold change
- GAPDH gene expression vs control: 18.3 fold change
- GIA (giardin) gene expression, increase vs control: 20.1 times
- NADHox gene expression, increase vs control: lower
- PFK gene expression vs control: reduction
- PFOR gene expression vs control: 16 fold change
- PPDK gene expression vs control: 21.8 fold change
- TKT gene expression, increase vs control: 45.1 times
- VSP gene expression, increase vs control: 47.8 times

From PMC12111156, “Nitazoxanide Analogs: Synthesis, In Vitro Giardicidal Activity, and Effects on Giardia lamblia Metabolic Gene Expression” (International Journal of Molecular Sciences, 2025)
